Experimental data from patent publication US10774087B2, “Sulfonamide derivative having coumarin skeleton” (Daiichi Sankyo Company, Limited, priority 2016, dated 2020).
Structures can show the parent of a compound that is named as a salt. Where two headings read alike, the source gives them in different places. One block for each molecule: values may come before it.

How the values were obtained:
[1] = biological target: T1, recombinant MTHFD2 protein (Homo sapiens, UniProt P13995); assay: MTHFD2 dehydrogenase assay; format: biochemical
T1 construct: containing recombinant MTHFD2 protein
T1 sequence (P13995 36-350): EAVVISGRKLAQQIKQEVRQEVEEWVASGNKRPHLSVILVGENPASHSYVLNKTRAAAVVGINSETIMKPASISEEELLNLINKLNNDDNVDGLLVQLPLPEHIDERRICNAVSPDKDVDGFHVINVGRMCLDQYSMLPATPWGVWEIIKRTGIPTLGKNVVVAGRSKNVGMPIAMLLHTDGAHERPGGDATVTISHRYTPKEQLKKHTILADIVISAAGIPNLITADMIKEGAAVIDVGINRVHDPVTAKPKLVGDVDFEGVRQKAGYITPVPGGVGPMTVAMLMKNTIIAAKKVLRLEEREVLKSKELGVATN

MDA-MB-231 luc cells = assay: Growth inhibition test using MDA-MB-231 luc cells; format: cell-based, human
[2] = biological target: T2, recombinant MTHFD1 protein (dehydrogenase domain, alone) (Homo sapiens, UniProt P11586); assay: MTHFD1 dehydrogenase assay; format: biochemical
T2 construct: recombinant MTHFD1 protein (dehydrogenase domain, alone)
T2 sequence (P11586 2-291 limits assumed): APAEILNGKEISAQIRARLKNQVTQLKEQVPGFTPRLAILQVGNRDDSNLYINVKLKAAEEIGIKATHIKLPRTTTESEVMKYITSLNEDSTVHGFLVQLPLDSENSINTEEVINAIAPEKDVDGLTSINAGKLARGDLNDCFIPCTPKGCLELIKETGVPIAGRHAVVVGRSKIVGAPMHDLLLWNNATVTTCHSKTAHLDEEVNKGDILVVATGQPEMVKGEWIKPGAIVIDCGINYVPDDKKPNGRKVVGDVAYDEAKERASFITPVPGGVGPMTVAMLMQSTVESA

[3] = 200 μM NAD, room temperature 30 minutes, absorbance 355 nm
[4] = 165.4 μM NADP, room temperature 30 minutes, absorbance 355 nm
[5] = human breast cancer MDA-MB-231 luc, Day 3, cell-titer Glo, Day 0 value subtracted, read-out: GI50

SMILES: Cc1c(N2CCN(C)[C@@H](C)C2)ccc2c3c(c(=O)oc12)CN(C(=O)c1ccc(NS(C)(=O)=O)c(Cl)c1)CC3 [Example 4, N-[2-Chloro-4-({8-[(3S)-3,4-dimethylpiperazin-1-yl]-7-methyl-5-oxo-1,5-dihydro-2H-chromeno[3,4-c]pyridin-3(4H)-yl}carbonyl)phenyl]methanesulfonamide]
IC50 [1, 3]: 0.0093 µM
GI50 (MDA-MB-231 luc cells; Homo sapiens, MDA-MB-231): 0.2 µM

IC50 [2, 4]: 2.2 µM
IC50 [1, 3]: 0.028 µM
GI50 (MDA-MB-231 luc cells; [5]): 1.1 µM
SMILES: Cc1c(N2CCN(C)CC2)ccc2c3c(c(=O)oc12)CN(C(=O)c1ccc(NS(=O)(=O)C2CC2)c(Cl)c1)CC3 [Example 2, N-(2-Chloro-4-{[7-methyl-8-(4-methylpiperazin-1-yl)-5-oxo-1,5-dihydro-2H-chromeno[3,4-c]pyridin-3(4H)-yl]carbonyl}phenyl)cyclopropanesulfonamide]

SMILES: Cc1c(N2CCN(C)[C@@H](C)C2)cc(C)c2c3c(c(=O)oc12)CN(C(=O)c1ccc(NS(C)(=O)=O)c(OC(F)(F)F)c1)CC3 [Example 8, N-[4-({8-[(3S)-3,4-Dimethylpiperazin-1-yl]-7,10-dimethyl-5-oxo-1,5-dihydro-2H-chromeno[3,4-c]pyridin-3(4H)-yl}carbonyl)-2-(trifluoromethoxy)phenyl]methanesulfonamide]
IC50 [2]: 0.2 µM
IC50 [1]: 0.0026 µM
GI50 (MDA-MB-231 luc cells; Homo sapiens, MDA-MB-231): 0.045 µM

SMILES: Cc1c(N2CCN(C)[C@@H](C)C2)cc(C)c2c3c(c(=O)oc12)CN(C(=O)c1ccc(NS(C)(=O)=O)c(Cl)c1)CC3 [Example 7, N-[2-Chloro-4-({8-[(3S)-3,4-dimethylpiperazin-1-yl]-7,10-dimethyl-5-oxo-1,5-dihydro-2H-chromeno[3,4-c]pyridin-3(4H)-yl}carbonyl)phenyl]methanesulfonamide]
IC50 [2]: 0.56 µM
IC50 [1]: 0.0044 µM
GI50 (MDA-MB-231 luc cells; Homo sapiens, MDA-MB-231): 0.1 µM

SMILES: Cc1c(N2CCN(C)CC2)ccc2c3c(c(=O)oc12)CN(C(=O)c1ccc(NS(C)(=O)=O)c(Cl)c1)CC3 [Example 1, N-(2-chloro-4-{[7-methyl-8-(4-methylpiperazin-1-yl)-5-oxo-1,5-dihydro-2H-chromeno[3,4-c]pyridin-3(4H)-yl]carbonyl}phenyl)methanesulfonamide]
IC50 [1, 3]: 0.048 µM
GI50 (MDA-MB-231 luc cells; Homo sapiens, MDA-MB-231): 0.94 µM

SMILES: Cc1c(N2CCN(C)C(C)(C)C2)ccc2c3c(c(=O)oc12)CN(C(=O)c1ccc(NS(C)(=O)=O)c(OC(F)(F)F)c1)CC3 [Example 12, N-[4-{[7-Methyl-5-oxo-8-(3,3,4-trimethylpiperazin-1-yl)-1,5-dihydro-2H-chromeno[3,4-c]pyridin-3(4H)-yl]carbonyl}-2-(trifluoromethoxy)phenyl]methanesulfonamide]
IC50 [2]: 0.71 µM
IC50 [1]: 0.075 µM
GI50 (MDA-MB-231 luc cells; Homo sapiens, MDA-MB-231): 0.066 µM

SMILES: Cc1c(N2CCN(C)[C@@H](C)C2)ccc2c3c(c(=O)oc12)CN(C(=O)c1ccc(NS(C)(=O)=O)c(C(F)(F)F)c1)CC3 [Example 6, N-[4-({8-[(3S)-3,4-Dimethylpiperazin-1-yl]-7-methyl-5-oxo-1,5-dihydro-2H-chromeno[3,4-c]pyridin-3(4H)-yl}carbonyl)-2-(trifluoromethyl)phenyl]methanesulfonamide]
IC50 [2]: 1.5 µM
IC50 [1]: 0.0064 µM
GI50 (MDA-MB-231 luc cells; Homo sapiens, MDA-MB-231): 0.21 µM

IC50 [2, 4]: 0.22 µM
IC50 [1, 3]: 0.0027 µM
GI50 (MDA-MB-231 luc cells; [5]): 0.017 µM
SMILES: CCS(=O)(=O)Nc1ccc(C(=O)N2CCc3c(c(=O)oc4c(C)c(N5CCN(C)[C@@H](C)C5)cc(C)c34)C2)cc1OC(F)(F)F [Example 10, N-[4-({8-[(3S)-3,4-Dimethylpiperazin-1-yl]-7,10-dimethyl-5-oxo-1,5-dihydro-2H-chromeno[3,4-c]pyridin-3(4H)-yl}carbonyl)-2-(trifluoromethoxy)phenyl]ethanesulfonamide]

SMILES: Cc1c(N2CCN(C)[C@@H](C)C2)ccc2c3c(c(=O)oc12)CN(C(=O)c1ccc(NS(C)(=O)=O)c(OC(F)(F)F)c1)CC3 [Example 5, N-[4-({8-[(3S)-3,4-Dimethylpiperazin-1-yl]-7-methyl-5-oxo-1,5-dihydro-2H-chromeno[3,4-c]pyridin-3(4H)-yl}carbonyl)-2-(trifluoromethoxy)phenyl]methanesulfonamide]
GI50 (MDA-MB-231 luc cells; Homo sapiens, MDA-MB-231): 0.14 µM

SMILES: CC[C@H]1CN(c2ccc3c4c(c(=O)oc3c2C)CN(C(=O)c2ccc(NS(C)(=O)=O)c(OC(F)(F)F)c2)CC4)CCN1C [Example 11, N-[4-({8-[(3S)-3-Ethyl-4-methylpiperazin-1-yl]-7-methyl-5-oxo-1,5-dihydro-2H-chromeno[3,4-c]pyridin-3(4H)-yl}carbonyl)-2-(trifluoromethoxy)phenyl]methanesulfonamide]
IC50 [2]: 0.36 µM
IC50 [1]: 0.0051 µM
GI50 (MDA-MB-231 luc cells; Homo sapiens, MDA-MB-231): 0.12 µM

SMILES: Cc1c(N2C[C@@H](C)N(C)[C@@H](C)C2)ccc2c3c(c(=O)oc12)CN(C(=O)c1ccc(NS(C)(=O)=O)c(Cl)c1)CC3 [Example 14, N-[2-Chloro-4-({7-methyl-5-oxo-8-[(3R,5S)-3,4,5-trimethylpiperazin-1-yl]-1,5-dihydro-2H-chromeno[3,4-c]pyridin-3(4H)-yl}carbonyl)phenyl]methanesulfonamide]
IC50 [1, 3]: 0.037 µM
GI50 (MDA-MB-231 luc cells; Homo sapiens, MDA-MB-231): 0.78 µM

SMILES: Cc1c(N2CCN(C)CC2)ccc2c3c(c(=O)oc12)CN(C(=O)c1ccc(NS(C)(=O)=O)c(OC(F)(F)F)c1)CC3 [Example 3, N-[4-{[7-Methyl-8-(4-methylpiperazin-1-yl)-5-oxo-1,5-dihydro-2H-chromeno[3,4-c]pyridin-3(4H)-yl]carbonyl}-2-(trifluoromethoxy)phenyl]methanesulfonamide]
IC50 [1, 3]: 0.021 µM
GI50 (MDA-MB-231 luc cells; Homo sapiens, MDA-MB-231): 0.38 µM

SMILES: CCS(=O)(=O)Nc1ccc(C(=O)N2CCc3c(c(=O)oc4c(C)c(N5CCN(C)[C@@H](C)C5)ccc34)C2)cc1OC(F)(F)F [Example 9, N-[4-({8-[(3S)-3,4-Dimethylpiperazin-1-yl]-7-methyl-5-oxo-1,5-dihydro-2H-chromeno[3,4-c]pyridin-3(4H)-yl}carbonyl)-2-(trifluoromethoxy)phenyl]ethanesulfonamide]
IC50 [2]: 0.4 µM
IC50 [1]: 0.0047 µM
GI50 (MDA-MB-231 luc cells; Homo sapiens, MDA-MB-231): 0.12 µM

SMILES: Cc1c(N2CCN[C@@H](C)C2)ccc2c3c(c(=O)oc12)CN(C(=O)c1ccc(NS(C)(=O)=O)c(OC(F)(F)F)c1)CC3 [Example 13, N-[4-({7-Methyl-8-[(3S)-3-methylpiperazin-1-yl]-5-oxo-1,5-dihydro-2H-chromeno[3,4-c]pyridin-3(4H)-yl}carbonyl)-2-(trifluoromethoxy)phenyl]methanesulfonamide hydrochloride]
IC50 [2, 4]: 0.9 µM
IC50 [1, 3]: 0.0078 µM
GI50 (MDA-MB-231 luc cells; Homo sapiens, MDA-MB-231): 0.26 µM
